Data published in US12570666B2, “Furoindazole derivatives” (Bayer Aktiengesellschaft, priority 2019, dated 2026).

These compounds were tested against T1, human GPR84 receptor (Homo sapiens, UniProt Q9NQS5) (assay: cAMP HTRF assay for identification of cellular GPR84 antagonists). Details: CHO-K1 cells stably expressing human GPR84; Forskolin + agonist 6-OAU (EC80); average or median values.
T1 construct: frozen aliquots prepared by acCELLerate; host or cells: CHO-K1
T1 sequence (Q9NQS5 whole entry): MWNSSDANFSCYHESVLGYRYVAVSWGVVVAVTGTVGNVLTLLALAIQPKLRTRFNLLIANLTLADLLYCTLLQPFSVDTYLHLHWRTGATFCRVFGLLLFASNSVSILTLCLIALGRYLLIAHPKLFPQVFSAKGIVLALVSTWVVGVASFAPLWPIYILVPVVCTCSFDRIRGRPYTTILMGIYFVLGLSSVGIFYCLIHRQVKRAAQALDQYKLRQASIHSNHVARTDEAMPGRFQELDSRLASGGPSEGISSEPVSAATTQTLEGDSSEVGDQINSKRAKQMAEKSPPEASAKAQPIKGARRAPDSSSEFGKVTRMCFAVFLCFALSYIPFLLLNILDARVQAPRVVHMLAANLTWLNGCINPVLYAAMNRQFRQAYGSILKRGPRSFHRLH
Assay type: cell-based
Outline: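 Forskolin-stimulated CHO-K1 cells stably expressing human GPR84, agonist-suppressed cAMP measured by HTRF (665/620 ratio) after lysis. Compounds at 11 concentrations, 20 μM to 0.07 nM, duplicate; normalized to DMSO and no-agonist controls; IC50 by 4-parameter fit.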
In the case of `Cc1c(C(=O)NCc2cc(C3CC3)on2)oc2c1-c1nn(CC3COc4ncccc4O3)cc1CC2` (single isomer, unassigned) [Example 50-2], the IC50 is reported as 17 nM.
`Cc1c(C(=O)N2CCCC2CN)oc2c1-c1nn(Cc3ccccn3)cc1CC2` (racemic) [Example 30, [(2R/S)-2-(aminomethyl)pyrrolidin-1-yl][8-methyl-2-(pyridin-2-ylmethyl)-4,5-dihydro-2H-furo[2,3-g]indazol-7-yl]methanone] showed an IC50 of 3570 nM.
`Cc1cccc(Cn2cc3c(n2)-c2c(oc(C(=O)NCC4CCCO4)c2C)CC3)n1` (single isomer, unassigned) [Example 66-2] was tested, and the IC50 was 660 nM.
`Cc1c(C(=O)NC[C@@H]2CCCO2)oc2c1-c1nn(Cc3ncccc3Cl)cc1CC2` [Example 60, 2-[(3-chloropyridin-2-yl)methyl]-8-methyl-N-[(2S)-tetrahydrofuran-2-ylmethyl]-4,5-dihydro-2H-furo[2,3-g]indazole-7-carboxamide] showed an IC50 of 27 nM.
For `Cc1c(C(=O)NC[C@@H]2CCCO2)oc2c1-c1nn(Cc3cccnn3)cc1CC2` [Example 184], the IC50 was 447 nM.
With `Cn1ccc(CNC(=O)c2oc3c(c2C(F)(F)F)-c2nn(C[C@H]4COCCO4)cc2C2(CCC2)C3)n1` [Example 270, 2′-[(2S)-1,4-dioxan-2-ylmethyl]-N-[(1-methyl-1H-pyrazol-3-yl)methyl]-8′-(trifluormethyl)-2′,5′-dihydrospiro[cyclobutan-1,4′-furo[2,3-g]indazol]-7′-carboxamide] the IC50 was 192 nM.
In the case of `Cc1c(C(=O)NC[C@@H]2CCCO2)oc2c1-c1nn(Cc3cc(F)ccn3)cc1CC2` [Example 182], the IC50 is reported as 168 nM.
For `C[C@@H]1Cc2oc(C(=O)NCc3ncccn3)c(C(F)(F)F)c2-c2nn(C[C@H]3COCCO3)cc21` (single isomer, unassigned) [Example 304], the IC50 was 13 nM.
For `Cc1c(C(=O)NC[C@@H]2CCCO2)oc2c1-c1nn(CC3(F)COC3)cc1CC2` [Example 95, 2-[(3-fluorooxetan-3-yl)methyl]-8-methyl-N-[(2S)-tetrahydrofuran-2-ylmethyl]-4,5-dihydro-2H-furo[2,3-g]indazole-7-carboxamide], the IC50 was 31 nM.
`Cc1cccc(Cn2cc3c(n2)-c2c(oc(C(=O)NCCN4CCCC4)c2C)CC3)n1` [Example 69, 8-methyl-2-[(6-methylpyridin-2-yl)methyl]-N-[2-(pyrrolidin-1-yl)ethyl]-4,5-dihydro-2H-furo[2,3-g]indazole-7-carboxamide] showed an IC50 of 750 nM.
`O=C(NC[C@@H]1COCCO1)c1oc2c(c1C(F)(F)F)-c1nn(Cc3ccccn3)cc1C1(CCC1)C2` [Example 273, N-[(2R)-1,4-Dioxan-2-ylmethyl]-2′-(pyridin-2-ylmethyl)-8′-(trifluormethyl)-2′,5′-dihydrospiro[cyclobutan-1,4′-furo[2,3-g]indazol]-7′-carboxamide] showed an IC50 of 9 nM.
Compound `Cc1c(C(=O)NC[C@@H]2CCCO2)oc2c1-c1nn(C[C@H]3COCCO3)cc1C1(CCC1)C2` [Example 143, 2′-[(2S)-1,4-dioxan-2-ylmethyl]-8′-methyl-N-[(2S)-tetrahydrofuran-2-ylmethyl]-2′,5′-dihydrospiro[cyclobutane-1,4′-furo[2,3-g]indazole]-7′-carboxamide] has an IC50 of 77 nM.
For `O=C(NC[C@@H]1COCCO1)c1oc2c(c1C1CC1)-c1nn(C[C@H]3COCCO3)cc1CC2` [Example 193], the IC50 was 32 nM.
Work on `Cc1c(C(=O)NC[C@@H]2COCCO2)oc2c1-c1nn(C[C@H]3COCCO3)cc1[C@H](C(F)(F)F)C2` (single isomer, unassigned) [Example 265-1, (4R or 4S)-N-{[(2R)-1,4-dioxan-2-yl]methyl}-2-{[(2S)-1,4-dioxan-2-yl]methyl}-8-methyl-4-(trifluoromethyl)-4,5-dihydro-2H-furo[2,3-g]indazole-7-carboxamide] yielded an IC50 of 185 nM.
`Cc1c(C(=O)NC[C@@H]2CCCO2)oc2c1-c1nn(C(=O)N(C)C)cc1C1(CC1)C2` [Example 153] showed an IC50 of 240 nM.
